Reference: publication PMC5557014 (Biochemical pharmacology, 2017)
Like-named read-outs stand apart in the source and are kept apart here.

Key:
Type in all cases: biochemical
[1] = biological target: T1, cellular DNA polymerase α (Homo sapiens, UniProt P09884); assay: Cellular DNA polymerase α assay
T1 sequence (P09884 1-1462): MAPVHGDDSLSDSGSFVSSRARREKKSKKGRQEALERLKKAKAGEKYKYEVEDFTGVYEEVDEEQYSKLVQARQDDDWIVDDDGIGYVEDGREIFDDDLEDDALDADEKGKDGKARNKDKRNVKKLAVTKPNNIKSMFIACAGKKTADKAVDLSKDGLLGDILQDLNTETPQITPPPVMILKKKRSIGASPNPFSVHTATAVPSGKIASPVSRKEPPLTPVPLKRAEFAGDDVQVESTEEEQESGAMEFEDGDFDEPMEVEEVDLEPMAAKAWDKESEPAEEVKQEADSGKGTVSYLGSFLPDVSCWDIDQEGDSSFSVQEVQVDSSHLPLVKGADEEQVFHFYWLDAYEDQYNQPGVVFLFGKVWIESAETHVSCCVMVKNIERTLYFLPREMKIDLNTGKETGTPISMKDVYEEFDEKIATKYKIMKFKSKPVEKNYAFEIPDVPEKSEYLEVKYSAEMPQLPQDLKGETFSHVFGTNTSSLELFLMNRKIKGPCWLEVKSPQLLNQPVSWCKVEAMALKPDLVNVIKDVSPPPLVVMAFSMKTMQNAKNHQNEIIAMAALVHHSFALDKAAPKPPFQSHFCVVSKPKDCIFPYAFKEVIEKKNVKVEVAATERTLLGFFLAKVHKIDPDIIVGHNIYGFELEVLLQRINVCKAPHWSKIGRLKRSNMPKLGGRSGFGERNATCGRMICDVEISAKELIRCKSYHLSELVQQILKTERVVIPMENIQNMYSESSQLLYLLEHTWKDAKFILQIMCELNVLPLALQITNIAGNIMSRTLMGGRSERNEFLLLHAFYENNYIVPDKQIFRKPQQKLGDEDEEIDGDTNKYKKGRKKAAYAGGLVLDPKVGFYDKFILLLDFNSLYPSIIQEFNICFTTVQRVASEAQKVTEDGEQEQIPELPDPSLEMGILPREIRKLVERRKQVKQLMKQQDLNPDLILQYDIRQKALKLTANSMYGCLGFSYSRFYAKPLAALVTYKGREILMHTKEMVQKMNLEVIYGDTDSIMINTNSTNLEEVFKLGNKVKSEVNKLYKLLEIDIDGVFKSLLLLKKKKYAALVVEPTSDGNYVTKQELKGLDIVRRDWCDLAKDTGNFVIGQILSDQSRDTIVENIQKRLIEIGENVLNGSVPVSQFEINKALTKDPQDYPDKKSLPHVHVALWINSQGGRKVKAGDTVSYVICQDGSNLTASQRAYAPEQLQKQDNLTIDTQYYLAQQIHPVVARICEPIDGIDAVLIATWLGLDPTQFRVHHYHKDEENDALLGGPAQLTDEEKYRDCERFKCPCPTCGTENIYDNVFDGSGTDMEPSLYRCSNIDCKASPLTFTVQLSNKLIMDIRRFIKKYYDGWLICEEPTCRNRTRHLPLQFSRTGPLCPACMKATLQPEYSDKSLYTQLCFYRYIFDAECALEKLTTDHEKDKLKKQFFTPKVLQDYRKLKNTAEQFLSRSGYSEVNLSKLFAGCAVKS

HSV-1 DNA polymerase = HSV-1 DNA polymerase (Human herpesvirus 1, UniProt P04293); assay: HSV-1 DNA polymerase enzyme assay; settings: calf thymus DNA
HCMV DNA polymerase = HCMV DNA polymerase (Human cytomegalovirus, UniProt P08546); assay: HCMV DNA polymerase enzyme assay; settings: calf thymus DNA
[2] = biological target: cellular DNA polymerase β (Homo sapiens, UniProt P06746); assay: Cellular DNA polymerase β assay
HIV-1 RT = HIV-1 RT (Human immunodeficiency virus type 1 group M subtype B, UniProt P04585); assay: HIV-1 RT assay with homopolymeric template/primers

HCMV DNA polymerase, sequence (P08546 whole entry): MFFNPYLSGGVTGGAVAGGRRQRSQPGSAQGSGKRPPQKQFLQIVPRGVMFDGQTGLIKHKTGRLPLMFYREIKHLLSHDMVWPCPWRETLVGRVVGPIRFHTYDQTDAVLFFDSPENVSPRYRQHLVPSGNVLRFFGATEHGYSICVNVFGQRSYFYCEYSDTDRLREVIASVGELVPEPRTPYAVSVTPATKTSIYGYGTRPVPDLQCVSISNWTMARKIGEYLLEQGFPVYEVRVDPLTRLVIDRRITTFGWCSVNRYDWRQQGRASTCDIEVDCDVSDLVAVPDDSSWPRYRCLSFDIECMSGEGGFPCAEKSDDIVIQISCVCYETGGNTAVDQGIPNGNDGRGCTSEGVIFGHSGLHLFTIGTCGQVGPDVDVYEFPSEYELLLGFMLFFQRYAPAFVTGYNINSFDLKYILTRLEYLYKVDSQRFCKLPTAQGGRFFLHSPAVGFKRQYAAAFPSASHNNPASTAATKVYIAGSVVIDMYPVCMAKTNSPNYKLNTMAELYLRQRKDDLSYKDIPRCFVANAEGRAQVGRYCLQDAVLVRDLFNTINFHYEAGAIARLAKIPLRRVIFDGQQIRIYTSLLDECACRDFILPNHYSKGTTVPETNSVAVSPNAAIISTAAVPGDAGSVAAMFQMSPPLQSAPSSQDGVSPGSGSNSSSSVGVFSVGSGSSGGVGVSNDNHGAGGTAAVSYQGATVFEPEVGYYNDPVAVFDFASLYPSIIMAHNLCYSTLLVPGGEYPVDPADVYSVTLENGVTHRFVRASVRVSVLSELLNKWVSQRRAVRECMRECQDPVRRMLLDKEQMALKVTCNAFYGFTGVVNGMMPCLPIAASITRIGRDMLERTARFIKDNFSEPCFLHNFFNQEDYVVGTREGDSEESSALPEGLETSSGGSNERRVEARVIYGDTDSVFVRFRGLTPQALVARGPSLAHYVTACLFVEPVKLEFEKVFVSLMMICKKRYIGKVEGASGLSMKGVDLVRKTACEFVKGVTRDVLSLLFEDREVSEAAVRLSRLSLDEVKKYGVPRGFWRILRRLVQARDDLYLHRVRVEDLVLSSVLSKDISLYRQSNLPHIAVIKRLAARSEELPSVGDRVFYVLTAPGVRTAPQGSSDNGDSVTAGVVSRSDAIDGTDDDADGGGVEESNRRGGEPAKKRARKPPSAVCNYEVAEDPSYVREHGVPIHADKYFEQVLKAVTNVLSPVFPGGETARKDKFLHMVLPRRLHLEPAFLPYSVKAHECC
HSV-1 DNA polymerase, sequence (P04293 whole entry): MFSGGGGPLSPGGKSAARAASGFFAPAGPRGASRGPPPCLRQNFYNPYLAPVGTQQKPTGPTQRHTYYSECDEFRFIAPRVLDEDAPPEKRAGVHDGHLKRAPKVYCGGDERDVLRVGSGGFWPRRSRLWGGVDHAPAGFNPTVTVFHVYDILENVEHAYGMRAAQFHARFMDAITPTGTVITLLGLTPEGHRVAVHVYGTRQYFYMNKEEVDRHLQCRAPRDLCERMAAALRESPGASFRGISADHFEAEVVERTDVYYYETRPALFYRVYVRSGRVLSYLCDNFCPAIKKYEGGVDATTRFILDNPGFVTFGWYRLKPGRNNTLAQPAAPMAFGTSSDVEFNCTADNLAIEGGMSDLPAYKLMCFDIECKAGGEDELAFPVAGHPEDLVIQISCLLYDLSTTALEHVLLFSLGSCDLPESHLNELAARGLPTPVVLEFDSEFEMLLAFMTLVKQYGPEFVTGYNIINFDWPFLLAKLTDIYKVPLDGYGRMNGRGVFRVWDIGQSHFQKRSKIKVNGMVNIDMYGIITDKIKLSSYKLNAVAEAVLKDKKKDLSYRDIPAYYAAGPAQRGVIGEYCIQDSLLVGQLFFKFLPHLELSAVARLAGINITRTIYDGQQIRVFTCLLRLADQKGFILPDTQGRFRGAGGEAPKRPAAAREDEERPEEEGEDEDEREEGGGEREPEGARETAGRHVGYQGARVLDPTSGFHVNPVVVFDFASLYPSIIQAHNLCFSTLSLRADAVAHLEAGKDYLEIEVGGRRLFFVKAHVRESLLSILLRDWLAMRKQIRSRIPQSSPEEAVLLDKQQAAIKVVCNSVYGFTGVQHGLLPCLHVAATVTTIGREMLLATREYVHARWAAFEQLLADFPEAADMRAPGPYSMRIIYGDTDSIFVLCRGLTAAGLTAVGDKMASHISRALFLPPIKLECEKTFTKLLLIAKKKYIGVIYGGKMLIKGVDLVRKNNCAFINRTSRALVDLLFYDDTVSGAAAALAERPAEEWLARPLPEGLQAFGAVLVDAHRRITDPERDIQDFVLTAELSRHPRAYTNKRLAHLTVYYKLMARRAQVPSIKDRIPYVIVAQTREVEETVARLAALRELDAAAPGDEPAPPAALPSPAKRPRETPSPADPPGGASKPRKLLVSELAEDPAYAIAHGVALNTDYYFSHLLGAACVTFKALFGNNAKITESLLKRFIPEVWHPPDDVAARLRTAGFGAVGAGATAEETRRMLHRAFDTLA

| SMILES | IC50 [1] [µM] | IC50 (HSV-1 DNA polymerase; IC50 HSV-1 DNA pol, [^3H]dGTP) [µM] | IC50 (HSV-1 DNA polymerase; IC50 HSV-1 DNA pol, [^3H]dTTP) [µM] | IC50 (HCMV DNA polymerase; IC50 HCMV DNA pol, [^3H]dGTP) [µM] | IC50 (HCMV DNA polymerase; IC50 HCMV DNA pol, [^3H]dTTP) [µM] | IC50 [2] [µM] | IC50 ([1]; read-out: IC50 α DNA pol, calf thymus DNA, [^3H]dGTP) [µM] | IC50 (HIV-1 RT; read-out: IC50 HIV-1 RT, poly rA.dT, [^3H]dTTP) [µM] | IC50 (HIV-1 RT; read-out: IC50 HIV-1 RT, poly rC.dG, [^3H]dGTP) [µM] | IC50 (HSV-1 DNA polymerase; read-out: IC50 HSV-1 DNA pol, [^3H]dGTP) [µM] | IC50 (HSV-1 DNA polymerase; read-out: IC50 HSV-1 DNA pol, [^3H]dTTP) [µM] | IC50 (HCMV DNA polymerase; read-out: IC50 HCMV DNA pol, [^3H]dGTP) [µM] | IC50 (HCMV DNA polymerase; read-out: IC50 HCMV DNA pol, [^3H]dTTP) [µM] | IC50 ([2]; read-out: IC50 β DNA pol, calf thymus DNA, [^3H]dGTP) [µM] | IC50 (HIV-1 RT; IC50 HIV-1 RT, poly rA.dT, [^3H]dTTP) [µM] | IC50 (HIV-1 RT; IC50 HIV-1 RT, poly rC.dG, [^3H]dGTP) [µM] |
| --- | --- | --- | --- | --- | --- | --- | --- | --- | --- | --- | --- | --- | --- | --- | --- | --- |
| Cc1ccnc2c1NC(=O)c1cccnc1N2C1CC1 [Nevirapine] | > 250 | > 100 | > 100 | > 250 | > 250 | > 250 | – | – | – | – | – | – | – | – | – | – |
| O=C(O)P(=O)(O)O [PFA] | – | – | – | – | – | – | 56 ± 12 | 0.55 ± 0.01 | 17 ± 2 | 1.6 ± 0.8 | 3.5 ± 1.7 | 7 ± 0.7 | 9.4 ± 6 | > 100 | – | – |
| Nc1nc2c(ncn2[C@H]2CC[C@@H](COP(=O)(O)OP(=O)(O)OP(=O)(O)O)O2)c(=O)[nH]1 [ddGTP, 2′,3′-dideoxyguanosine-5′-triphosphate] | 73 ± 8 | 4.5 ± 1.2 | > 100 | 48 ± 15 | > 100 | 2.2 ± 1.8 | – | – | – | – | – | – | – | – | > 100 | 0.41 ± 0.02 |
